These results are taken from patent publication US10874749B2, “Gene therapies for neurodegenerative disorders targeting ganglioside biosynthetic pathways” (priority 2015, dated 2020).

In one series the test system is DA uptake. The series is described as follows: Striatal uptake of tritiated dopamine (3H-DA) in striatal homogenates. It counts as in vivo, mouse. The following applies: 3 minutes.
In the next series the test system is PD patients. Nature of the series: Randomized, controlled, delayed start clinical study of GM1 in PD patients. Type of series: in vivo, human. The source says: The more highly expressed gangliosides in the brain are GM1, GD1a, GD1b, GT1b, and GD3. […] Although GM1 administration has promise as a treatment for PD, it is difficult to source, is currently available only as a natural product extracted and purified from animal brains, and has low ability to cross the blood brain barrier.
The mean (±SE) change from baseline in Early-start (randomized to receive GM1 at start of study) and Delayed-start (randomized to receive placebo at start of study) study subjects and in a standard-of-care comparison group (no interventions). The dashed vertical line at week 24 indicates the end of study Phase I. After that, all subjects received GM1. The dashed vertical line at week 120 indicates the end of study Phase II. The horizontal dashed line indicates baseline level. An increase of score indicates symptom worsening; a decrease in score indicates symptom improvement. *=p<0.0001 Early-start vs. Delayed-start; ^=p<0.05 Early-start vs. Delayed-start

In the next series the test system is DAergic hES cells. Nature of the series: Rescue of DAergic hES cells from MPP+ toxicity (TH immunopositive cell count). It counts as cell-based, human. The method, then:
Human stem cells were differentiated into a dopaminergic (DAergic) phenotype using a well characterized method (Iacovitti et al. 2007 as modified in Cai et al., 2013).
hES cells were plated onto 24 well plates. Cells were pretreated with sialidase, GM1 or standard media for 2 hrs and were then exposed to the mitochondrial toxin MPP^+. Twenty-four hours later, media containing toxin was removed and fresh media containing the appropriate concentration of rescue agent was added. Two days later, cells were fixed, processed for tyrosine hydroxylase (TH) immunocytochemistry and the number of TH immunopositive cells were counted.
FIGS. 3A and 3B depict the protection/rescue of human embryonic stem cells from MPP^+ toxicity. A) The number of tyrosine hydroxylase immunopositive (TH^+) cells was reduced as a result of MPP^+ treatment.
Accordingly, the examples and studies identify that human embryonic stem (hES) cells, when differentiated into dopaminergic neurons, are susceptible to MPP^+ toxicity. However, there are mechanisms that exist that can mitigate the effects of MPP^+ toxicity. Indeed, MPP^+ toxicity in hES cells is mitigated by both GM1 and 0.005 U/mL VCS. Therefore, treatment with a sialidase, such as sialidase Neu3 that increases the amounts of GM1 expression in the striatum and the substantia nigra will provide neuroprotective effects.

For series [1] the following is noted: cited from earlier work.
The test system of the next series is YAC128 mice. The note with it: cited from earlier work.
[2] abbreviates: hES cells differentiated to dopaminergic phenotype.

Experimental for DA uptake: Whole striatal homogenates were exposed to [^3H] DA for 3 minutes in the presence or absence of mazindol to examine the influence of sialidase treatment on DA uptake.
In mouse studies as depicted in FIG. 4, striatal uptake of tritiated dopamine (^3H-DA) was examined. […] Striatal homogenates were incubated with ^3H-DA in the presence (non-specific) or absence (total) of the DA uptake inhibitor mazindol (Maz).

For the compound `OC1(c2ccc(Cl)cc2)c2ccccc2C2=NCCN21` (centres unmarked) [Mazindol, mazindol], the “total DA uptake (3H-DA)” value in the series with DA uptake is “effectively blocked”.

Consider GM1, for which the “change from baseline in score, early effect” value with PD patients (Early-start vs Delayed-start, Phase I to week 24) is “early symptomatic effect”. In addition, the “change from baseline in score, later effect” value with PD patients (Phase II to week 120) is recorded as “later disease modifying effect”. Further, the “clinical benefit and symptom progression” value in the series with PD patients (extended GM1 use up to 120 weeks) is “sustained clinical benefit and lower than expected symptom progression”. The “improving motor symptoms vs placebo” value in the series on PD patients (first 24 weeks of the study) was “superior to placebo”. The “number of tyrosine hydroxylase immunopositive (TH+) cells” value in the series on DAergic hES cells (5 and 10 μM doses of MPP+, pretreated 2 hrs) is given as “prevented cell loss”. The “protection/rescue from MPP+ toxicity (TH+ cells)” value with DAergic hES cells (setting [2]) is reported as “mitigated”. Moreover, in series [1], the oral bioavailability entry is “no oral bioavailability”. Also, in series [1] (systemically administered), the “bioavailability/penetrance across the blood brain barrier” value is given as “low”. The striatal dopamine levels entry with YAC128 mice (HD models, intracranial administration) is reported as “normalization”. Moreover, the mHtt phosphorylation entry in the series with YAC128 mice (YAC128 mice, infusion pump) is “phosphorylation of mHtt at serine residues 13 and 16”. For the same compound, the “time to normalization of motor function from start of treatment” value with YAC128 mice (infusion pump, YAC128 mice symptomatic for motor impairment) is at most 2 weeks.

As to “VCS: Sialidase V purified from Vibrio cholerae; cleaves a2-8 linkages and terminal a2-3 linkages”, the “protection/rescue from MPP+ toxicity (TH+ cells)” value in the series with DAergic hES cells (0.005 U/mL VCS) was “mitigated”; in the series on DAergic hES cells (setting [2]), “protect/rescue cells from MPP^+ toxicity”.
